This note sets out measurements from patent US20230041996A1, “CALCIUM-SENSING RECEPTOR AGONIST COMPOUND AND APPLICATION THEREOF” (BEIJING TUO JIE BIOPHARMACEUTICAL CO. LTD., priority 2019, published 2023).

Square brackets hold non-standard residues; d marks the D form. Peptide text beside a SMILES is read from it. * marks the point of attachment. Cys(free,S-linked) = N[C@@H](CS*)C(=O)O; d(hPhe) = N[C@H](CCc1ccccc1)C(=O)O; dCha = N[C@H](CC1CCCCC1)C(=O)O; dPhg = N[C@@H](C(=O)O)c1ccccc1; dTle = CC(C)(C)[C@@H](N)C(=O)O

Series [1] deals with T1, human calcium-sensing receptor (CaSR) (Homo sapiens, UniProt P41180).
T1 construct: host or cells: HEK293
T1 sequence (P41180 20-1078): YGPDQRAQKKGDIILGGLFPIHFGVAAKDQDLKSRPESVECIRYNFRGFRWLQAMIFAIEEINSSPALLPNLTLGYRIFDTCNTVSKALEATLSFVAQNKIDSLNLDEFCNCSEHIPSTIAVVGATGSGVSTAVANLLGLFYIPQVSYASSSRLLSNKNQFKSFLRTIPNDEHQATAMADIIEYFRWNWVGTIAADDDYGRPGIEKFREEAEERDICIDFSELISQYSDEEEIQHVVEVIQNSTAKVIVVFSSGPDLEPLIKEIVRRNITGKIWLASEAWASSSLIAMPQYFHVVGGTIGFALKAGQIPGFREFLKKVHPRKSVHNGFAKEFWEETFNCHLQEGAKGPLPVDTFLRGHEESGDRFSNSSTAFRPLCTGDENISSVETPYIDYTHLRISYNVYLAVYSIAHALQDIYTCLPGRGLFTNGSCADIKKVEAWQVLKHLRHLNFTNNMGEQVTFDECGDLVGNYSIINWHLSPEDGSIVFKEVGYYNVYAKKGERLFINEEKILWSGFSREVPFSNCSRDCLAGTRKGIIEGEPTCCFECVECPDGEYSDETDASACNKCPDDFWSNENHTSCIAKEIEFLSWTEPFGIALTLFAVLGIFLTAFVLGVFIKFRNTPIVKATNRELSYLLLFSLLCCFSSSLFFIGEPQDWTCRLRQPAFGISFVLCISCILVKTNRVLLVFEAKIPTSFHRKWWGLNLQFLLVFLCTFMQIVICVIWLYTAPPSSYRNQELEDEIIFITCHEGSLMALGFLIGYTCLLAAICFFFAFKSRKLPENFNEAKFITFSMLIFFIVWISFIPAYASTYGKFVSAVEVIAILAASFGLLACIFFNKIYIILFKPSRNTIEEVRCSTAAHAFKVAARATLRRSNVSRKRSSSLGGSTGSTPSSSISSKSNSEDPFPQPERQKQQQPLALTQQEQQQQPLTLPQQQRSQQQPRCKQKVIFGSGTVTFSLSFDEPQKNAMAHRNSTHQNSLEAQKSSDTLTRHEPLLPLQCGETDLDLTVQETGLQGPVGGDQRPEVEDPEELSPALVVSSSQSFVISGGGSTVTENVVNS
The series can be described thus: Agonist activity on human calcium-sensing receptor (IP-One HTRF in stably transfected HEK293/CaSR cells). The following applies: HEK293/CaSR cells, IP-One production, 60 min at 37° C., CaCl2 1.2 mM; read-out: EC50 for calcium-sensing receptor. Format: cell-based. The protocol:
3.1.1 Objective: The test example is intended to measure the agonist activity of compounds 1-38 on the human calcium-sensing receptor (CaSR).
Stably transfected HEK293/CaSR cells (source: Pharmaron) were cultured in a complete medium (composition: DMEM, high glucose+10% FBS+2 mM GlutaMAX+1× Penicillin-Streptomycin+200 μg/mL Hygromycin B) and incubated at 37° C./5% CO2 till 70%-90% cell confluence. The cells were digested with TrypLE, inoculated into 384-well cell culture plates, and cultured overnight at 37° C./5% CO2. After buffer exchange, stimulation buffer (HEPES 10 mM, MgCl2 0.5 mM, KCl 4.2 mM, NaCl 146 mM, glucose 5.5 mM, LiCl 50 mM, CaCl2 1.2 mM) and various concentrations of the test example compounds were added and incubated at 37° C. for 60 min. Production of IP-One in cells was detected according to the procedures in the Cisbio IP-One Tb kit instructions. The EC50 values of various test example compounds in influencing human calcium-sensing receptor was calculated by software after the raw data of the example compounds were collected, so as to evaluate the agonist activity of the example compounds on human calcium-sensing receptor.
HTRF signal was read by an EnVision detector with an excitation wavelength of 320 nm and emission wavelengths of 620 nm and 665 nm. The signal ratio (665 nm/620 nm×10,000) was calculated and fitted non-linearly to the sample concentration in GraphPad Prism 6 using a four-parameter equation to give EC50 values of the test example compounds 1-38.
For orientation: In TR-FRET formats the signal depends on donor and acceptor labels being close together.

Series [2] has as its system rat peritoneal mast cells. Briefly: In vitro histamine release in rat peritoneal mast cells (histamine ELISA). Format: cell-based. The following applies: test compound final concentration 10 μM, 15 min at 37° C., relative to PBS buffer (1.00). The procedure:
To evaluate the in vitro histamine release levels induced by some of the test example compounds, rat peritoneal mast cells were collected by lavaging rat peritoneum with a lavage buffer (cold HBSS+25 mM HEPES containing heparin 5 U/mL, pH 7.4). After collection, the cells were centrifuged, and the lavage buffer was discarded. The cells were resuspended and washed twice with a stimulation buffer (HBSS+25 mM HEPES+1 mM CaCl2), pH 7.4). The cells were plated at a density of 10^5 cell/well (200 μL/well) and incubated at 37° C. for 15 min with positive control compound 48/80 (final concentration: 4 μg/mL), test example compounds (final concentration: 10 μM) or vehicle control. The cells were centrifuged, and cell supernatant was collected and tested for histamine concentration according to LDN Histamine ELISA kit (BAE-1000) instructions.
A general note: ELISA stands for enzyme-linked immunosorbent assay.

One may read the EC50 as the concentration at which the effect is half-maximal. As to `CC(=O)N[C@H](CSSC[C@H](N)C(=O)O)C(=O)N[C@H](CCCNC(=N)N)C(=O)N[C@H](CCCNC(=N)N)C(=O)N[C@H](Cc1ccc(O)cc1)C(=O)N[C@H](CCCNC(=N)N)C(=O)N[C@H](C)C(=O)N[C@H](CCCNC(=N)N)C(N)=O` [Compound 24, Ac-c(C)-r-r-y-r-a-r-NH2] (Ac-[dC](Cys(free,S-linked))[dR][dR][dY][dR][dA][dR]-NH2), the concentration for a half-maximal effect (EC50) in series [1] is 2.03 µM. Moreover, the “Relative fold of histamine release in vitro” value (“Relative fold” for short) in series [2] came out at 3.18.
`CC(=O)N[C@H](CSSC[C@H](N)C(=O)O)C(=O)N[C@H](CCCNC(=N)N)C(=O)N[C@H](CCCNC(=N)N)C(=O)N[C@@H](C(=O)N[C@H](CCCNC(=N)N)C(=O)N[C@H](C)C(=O)N[C@H](CCCNC(=N)N)C(N)=O)c1ccccc1` [Compound 11, Ac-c(C)-r-r-(D-Phg)-r-a-r-NH2] (Ac-[dC](Cys(free,S-linked))[dR][dR][dPhg][dR][dA][dR]-NH2): in series [1], the EC50 is 15.7 µM. In addition, the “Relative fold” value in series [2] is 1.11.
On to `CC(=O)N[C@H](CSSC[C@H](N)C(=O)O)C(=O)N[C@H](CO)C(=O)N[C@H](CCCNC(=N)N)C(=O)N[C@H](CCCNC(=N)N)C(=O)N[C@H](CCCNC(=N)N)C(=O)NCC(=O)N[C@H](CCCNC(=N)N)C(N)=O` [Compound 8, Ac-c(C)-s-r-r-r-G-r-NH2] (Ac-[dC](Cys(free,S-linked))[dS][dR][dR][dR]G[dR]-NH2), for which the EC50 in series [1] was found to be 14.3 µM. Besides, in series [2], the “Relative fold” value was 1.50.
Taken in the same sequence, the figures for `CC(=O)N[C@H](CSSC[C@H](N)C(=O)O)C(=O)N[C@H](CCCNC(=N)N)C(=O)N[C@H](CCCNC(=N)N)C(=O)N[C@@H](C(=O)N[C@H](CCCNC(=N)N)C(=O)N[C@H](CO)C(=O)N[C@H](CCCNC(=N)N)C(N)=O)C(C)(C)C` [Compound 37, Ac-c(C)-r-r-(D-Tle)-r-s-r-NH2] (Ac-[dC](Cys(free,S-linked))[dR][dR][dTle][dR][dS][dR]-NH2) were 15.4 µM and 2.23.
For `CC(=O)N[C@H](CSSC[C@H](N)C(=O)O)C(=O)N[C@H](Cc1c[nH]c2ccccc12)C(=O)N[C@H](CCCNC(=N)N)C(=O)N[C@H](CCCNC(=N)N)C(=O)N[C@H](CCCNC(=N)N)C(=O)N[C@H](C)C(=O)N[C@H](CCCNC(=N)N)C(N)=O` [Compound 5, Ac-c(C)-(D-Trp)-r-r-r-a-r-NH2] (Ac-[dC](Cys(free,S-linked))[dW][dR][dR][dR][dA][dR]-NH2), in that order: 1.14 µM and 4.13.
For `CC(=O)N[C@H](CSSC[C@H](N)C(=O)O)C(=O)N[C@H](CCCNC(=N)N)C(=O)N[C@H](CCCNC(=N)N)C(=O)N[C@H](CC1CCCCC1)C(=O)N[C@H](CCCNC(=N)N)C(=O)N[C@H](C)C(=O)N[C@H](CCCNC(=N)N)C(N)=O` [Compound 21, Ac-c(C)-r-r-(D-Cha)-r-a-r-NH2] (Ac-[dC](Cys(free,S-linked))[dR][dR][dCha][dR][dA][dR]-NH2), in that order: 5.59 µM and 3.42.
Consider `CC(=O)N[C@H](CSSC[C@H](N)C(=O)O)C(=O)N[C@H](CCCNC(=N)N)C(=O)N[C@H](CCCNC(=N)N)C(=O)N[C@H](CO)C(=O)N[C@H](CCCNC(=N)N)C(=O)NCC(=O)N[C@H](CCCNC(=N)N)C(N)=O` [Compound 22, Ac-c(C)-r-r-s-r-G-r-NH2] (Ac-[dC](Cys(free,S-linked))[dR][dR][dS][dR]G[dR]-NH2), for which, in series [1], the EC50 was determined as 15.4 µM. Also, the “Relative fold” value in series [2] is recorded as 1.63.
Taken in the same sequence, the figures for `CC(=O)N[C@H](CSSC[C@H](N)C(=O)O)C(=O)N[C@H](CCCNC(=N)N)C(=O)N[C@H](CCCNC(=N)N)C(=O)N[C@@H](C(=O)N[C@H](CCCNC(=N)N)C(=O)N[C@H](C)C(=O)N[C@H](CCCNC(=N)N)C(N)=O)C(C)(C)C` [Compound 18, Ac-c(C)-r-r-(D-Tle)-r-a-r-NH2] (Ac-[dC](Cys(free,S-linked))[dR][dR][dTle][dR][dA][dR]-NH2) were 13.4 µM and 1.24.
For `CC(=O)N[C@H](CSSC[C@H](N)C(=O)O)C(=O)N[C@H](Cc1c[nH]cn1)C(=O)N[C@H](CCCNC(=N)N)C(=O)N[C@H](CCCNC(=N)N)C(=O)N[C@H](CCCNC(=N)N)C(=O)N[C@H](CO)C(=O)N[C@H](CCCNC(=N)N)C(N)=O` [Compound 10, Ac-c(C)-h-r-r-r-s-r-NH2] (Ac-[dC](Cys(free,S-linked))[dH][dR][dR][dR][dS][dR]-NH2), in that order: 3.52 µM and 3.66.
For `CC(=O)N[C@H](CSSC[C@H](N)C(=O)O)C(=O)N[C@H](CCCNC(=N)N)C(=O)N[C@H](CCCNC(=N)N)C(=O)N[C@H](CCc1ccccc1)C(=O)N[C@H](CCCNC(=N)N)C(=O)N[C@H](C)C(=O)N[C@H](CCCNC(=N)N)C(N)=O` [Compound 16, Ac-c(C)-r-r-(D-hPhe)-r-a-r-NH2] (Ac-[dC](Cys(free,S-linked))[dR][dR][d(hPhe)][dR][dA][dR]-NH2), in that order: 2.37 µM and 2.94.
In the case of `CC(=O)N[C@H](CSSC[C@H](N)C(=O)O)C(=O)N[C@H](CCCNC(=N)N)C(=O)N[C@H](CCCNC(=N)N)C(=O)N[C@@H](C(=O)N[C@H](CCCNC(=N)N)C(=O)NCC(=O)N[C@H](CCCNC(=N)N)C(N)=O)C(C)C` [Compound 30, Ac-c(C)-r-r-v-r-G-r-NH2] (Ac-[dC](Cys(free,S-linked))[dR][dR][dV][dR]G[dR]-NH2), the half-maximal effective concentration (EC50) in series [1] was found to be 19.6 µM. In series [2], the “Relative fold” value was 1.51.
For `CC(=O)N[C@H](CSSC[C@H](N)C(=O)O)C(=O)N[C@H](Cc1ccc(O)cc1)C(=O)N[C@H](CCCNC(=N)N)C(=O)N[C@H](CCCNC(=N)N)C(=O)N[C@H](CCCNC(=N)N)C(=O)N[C@H](C)C(=O)N[C@H](CCCNC(=N)N)C(N)=O` [Compound 4, Ac-c(C)-(D-Tyr)-r-r-r-a-r-NH2] (Ac-[dC](Cys(free,S-linked))[dY][dR][dR][dR][dA][dR]-NH2), in that order: 6.92 µM and 3.94.
Taken in the same sequence, the figures for `CC(=O)N[C@H](CSSC[C@H](N)C(=O)O)C(=O)N[C@H](Cc1c[nH]cn1)C(=O)N[C@H](CCCNC(=N)N)C(=O)N[C@H](CCCNC(=N)N)C(=O)N[C@H](CCCNC(=N)N)C(=O)NCC(=O)N[C@H](CCCNC(=N)N)C(N)=O` [Compound 7, Ac-c(C)-h-r-r-r-G-r-NH2] (Ac-[dC](Cys(free,S-linked))[dH][dR][dR][dR]G[dR]-NH2) were 18.6 µM and 2.24.
